Test results: patent publication US20250319063A1, “METHODS AND COMPOUNDS FOR RESTORING MUTANT P53 FUNCTION” (PMV PHARMACEUTICALS, INC., priority 2022, published 2025)
Where two headings read alike, the source gives them in different places.

Assay: Single oral dose plasma pharmacokinetics in fasted and fed healthy subjects (food effect, ethnicity)
Format: in vivo, human
Conditions: for AUC % extrap: both fed and fasted conditions
Method: Compound 1 pharmacokinetics were analyzed in healthy subjects administered Compound 1 in a fasted state. A subject was considered fasted if the subject fasted overnight for at least 10 hours and water was permitted ad libitum except for 1 hour before and after drug administration. For fasted subjects, Compound 1 was administered with at least 8 ounces (240 mL) of water. Compound 1 pharmacokinetics were also analyzed in healthy subjects administered Compound 1 in a fed state. A subject was considered fed after consuming a high-fat meal 30 minutes prior to drug administration, and the meal was finished at least 5 minutes prior to drug administration. For both fasted and fed subjects, no food was permitted for at least 4 hours post-dose and water was permitted starting at 1 hour post-dose.
Subjects were healthy, non-smoking male and female Caucasian/non-Asian or Japanese participants 18 to 55 years of age with a BMI between […].
In Part 1 of the study, analysis was performed to compare 1000 mg Compound 1 in fed and fasted states. A dose of 1000 mg of Compound 1 consisted of two 500 mg tablets administered as a single oral dose. The analysis of Part 1 was performed at two separate time points in two different schemes (1A and 1B).
In scheme 1A, at period 1, Compound 1 analyzed in healthy subjects administered 1000 mg Compound 1 (n=3) in a fed state. Following a washout period of 7-9 days, these subjects were then administered 1000 mg Compound 1 in a fasted state.
Separately, in scheme 1B, at period 1, Compound 1 was analyzed in healthy subjects administered 1000 mg Compound 1 (n=3) in a fasted state. Following a washout period of 7-9 days, these subjects were then administered 1000 mg Compound 1 in a fed state.
In Part 2 of the study, analysis was performed to compare 2000 mg Compound 1 in fed and fasted states and also to compared ethnicity of Caucasian/non-Asian subjects and Japanese subjects. A dose of 2000 mg of Compound 1 consisted of four 500 mg tablets administered as a single oral dose.
For Caucasian/non-Asian subjects (n=20) the analysis was performed at two separate time points in two different schemes (2A and 2B). During scheme 2A, at period 1, Compound 1 was analyzed in subjects administered 2000 mg Compound 1 (n=10) in a fed state. Following a washout period of 7-9 days, at period 2, these subjects were then administered 2000 mg Compound 1 in a fasted state. Separately in scheme 2B, at period 1, Compound 1 was analyzed in subjects administered 2000 mg Compound 1 (n=10) in a fasted state. Following a washout period of 7-9 days, at period 2, these subjects were then administered 2000 mg Compound 1 in a fed state.
For Japanese subjects (n=6), Compound 1 pharmacokinetics were analyzed in subjects administered 2000 mg Compound 1 in a fasted state.
Blood for the analysis of study drug (Compound 1) and metabolite (M1) were collected.
Various pharmacokinetic (PK) parameters were determined for each subject. (Tables 9-12 and FIGS. 23-28).
Statistical analysis of Compound 1 plasma PK parameters were evaluated for food effects for Part 1 (Table 11) and Part 2 (Table 12). The log-transformed PK parameters were analyzed using an analysis of variance model with treatment (fed/fasted condition) and period as fixed effects and participant as a random effect.

[1] = 2000 mg oral, Fasted, Caucasian/Non-Asian
[2] = 2000 mg oral, Fed, Caucasian/Non-Asian

For `CNC(=O)c1ccc(NCC#Cc2cc3c(N[C@@H]4CCN(C)C[C@@H]4F)cccc3n2CC(F)(F)F)c(OC)c1` [Compound 1, 4-((3-(4-(((3S,4R)-3-fluoro-1-methylpiperidin-4-yl)amino)-1-(2,2,2-trifluoroethyl)-1H-indol-2-yl)prop-2-yn-1-yl)amino)-3-methoxy-N-methylbenzamide], the “Plasma CL/F and Vz/F, fasted vs fed” value (1000 mg (Part 1)) was “slightly higher in the fasted condition”, the “Mean plasma concentrations, fed vs fasted” value (1000 mg and 2000 mg doses) was “higher for Caucasian/non-Asian participants under the fed condition compared to the fasted condition” and the “AUC0-inf, % Ratio (Fed/Fasted)” value (1000 mg oral (Part 1)) was 120.25%. For the same molecule, the “AUC0-last, % Ratio (Fed/Fasted)” value (1000 mg oral (Part 1)) was 120.21%, the “Cmax, % Ratio (Fed/Fasted)” value (1000 mg oral (Part 1)) was 121.75% and the “AUC% extrap, GeoMean” value (1000 mg oral, Fasted (Part 1)) was 1.61%. For the same molecule, the “CL/F, GeoMean” value (1000 mg oral, Fasted (Part 1)) was 6.67 L/h, the “λz, GeoMean” value (1000 mg oral, Fasted (Part 1)) was 0.0450 h⁻¹ and the “AUC0-last, GeoMean” value (1000 mg oral, Fed (Part 1)) was 177 µg·h/mL. For the same molecule, the “AUC% extrap, GeoMean” value (1000 mg oral, Fed (Part 1)) was 1.61%, the “CL/F, GeoMean” value (1000 mg oral, Fed (Part 1)) was 5.55 L/h and the “λz, GeoMean” value (1000 mg oral, Fed (Part 1)) was 0.0438 h⁻¹. The “increase of peak exposure (Cmax) with food (high-fat meal) vs fasted” value (1000 mg single dose) was “approximately 22%”, the “increase of systemic exposure (AUC0-inf and AUC0-last) with food (high-fat meal) vs fasted” value (1000 mg single dose) was “approximately 20%” and the AUC % extrap (1000 mg) was “less than 5%”. The “AUC0-inf, % Ratio (Fed/Fasted)” value (2000 mg oral (Part 2)) was 178.74%, the “AUC0-last, % Ratio (Fed/Fasted)” value (2000 mg oral (Part 2)) was 172.94% and the “Cmax, % Ratio (Fed/Fasted)” value (2000 mg oral (Part 2)) was 183.82%. For the same molecule, the “AUC% extrap, GeoMean” value [1] was 3.42%, the “CL/F, GeoMean” value [1] was 7.71 L/h and the “λz, GeoMean” value [1] was 0.0348 h⁻¹. For the same molecule, the “AUC0-last, GeoMean” value (2000 mg oral, Fasted, Japanese) was 326 µg·h/mL, the “AUC% extrap, GeoMean” value (2000 mg oral, Fasted, Japanese) was 2.13% and the “CL/F, GeoMean” value (2000 mg oral, Fasted, Japanese) was 5.92 L/h. The “λz, GeoMean” value (2000 mg oral, Fasted, Japanese) was 0.0398 h⁻¹, the “AUC0-last, GeoMean” value [2] was 448 µg·h/mL and the “AUC% extrap, GeoMean” value [2] was 4.74%. For the same molecule, the “CL/F, GeoMean” value [2] was 4.18 L/h, the “λz, GeoMean” value [2] was 0.0306 h⁻¹ and the “increase of AUC0-inf with food (high-fat meal) vs fasted” value (2000 mg single dose) was 79%. The “increase of AUC0-last with food (high-fat meal) vs fasted” value (2000 mg single dose) was 73%, the “increase of peak exposure (Cmax) with food (high-fat meal) vs fasted” value (2000 mg single dose) was “approximately 84%” and the “Plasma CL/F and Vz/F, fasted vs fed” value (2000 mg, Caucasian/non-Asian (Part 2)) was “slightly higher in the fasted condition”. For the same molecule, the AUC % extrap (2000 mg, Caucasian/non-Asian) was “less than 17%”, the “Mean plasma concentrations, Japanese vs Caucasian/non-Asian” value (2000 mg, fasted) was “higher in Japanese participants compared to Caucasian/non-Asian participants” and the “Plasma CL/F and Vz/F, Japanese vs Caucasian/non-Asian” value (2000 mg, fasted) was “numerically lower for Japanese participants”. The “peak exposure (Cmax) and systemic exposure (AUC), Japanese vs Caucasian/non-Asian” value (2000 mg, fasted) was “numerically higher in Japanese participants”, the “maximum exposure (Cmax) and systemic exposure (AUC), fed vs fasted” value (Caucasian/non-Asian participants) was “higher under fed conditions (high-fat meal) compared to fasted conditions” and the AUC(0-t) (both sexes, human, plasma, po, 1000 mg, 1000 mg oral, Fasted (Part 1), read-out: AUC0-24, GeoMean) was 97.9 µg·h/mL. The AUC(0-t) (both sexes, human, plasma, po, 1000 mg, 1000 mg oral, Fasted (Part 1), read-out: AUC0-96, GeoMean) was 148 µg·h/mL, the AUC(0-inf) (both sexes, human, plasma, po, 1000 mg, 1000 mg oral, Fasted (Part 1), read-out: AUC0-inf, GeoMean) was 150 µg·h/mL and the AUC(0-inf) (both sexes, human, plasma, po, 1000 mg, 1000 mg oral, Fasted (Part 1), read-out: AUC0-inf, Geometric Mean (analysis of variance model)) was 150 µg·h/mL. It also gave an AUC(0-t) (both sexes, human, plasma, po, 1000 mg, 1000 mg oral, Fasted (Part 1), read-out: AUC0-last, GeoMean) of 147 µg·h/mL, an AUC(0-t) (both sexes, human, plasma, po, 1000 mg, 1000 mg oral, Fasted (Part 1), read-out: AUC0-last, Geometric Mean (analysis of variance model)) of 147 µg·h/mL and a Cmax (both sexes, human, plasma, po, 1000 mg, 1000 mg oral, Fasted (Part 1), read-out: Cmax, GeoMean) of 8690 ng/mL. It also gave a Cmax (both sexes, human, plasma, po, 1000 mg, 1000 mg oral, Fasted (Part 1), read-out: Cmax, Geometric Mean (analysis of variance model)) of 8690 ng/mL and a Tmax (both sexes, human, plasma, po, 1000 mg, 1000 mg oral, Fasted (Part 1), read-out: Tmax, Median) of 2.27 h.
